From US6352737B1, “Use of nanoscale sterols and sterol esters” (Cognis Deutschland GmbH, priority 1999, dated 2002)

Test system: radioactive cholesterol
Experiment: Hypocholesterolemic effect: content of radioactive cholesterol in blood of rats after oral gelatine capsule
Assay type: in vivo
Conditions: male rats, relative to blank group, mean of 10 animals; for Radioactivity After 3 h: blood 3 h after gelatine capsule (5% by weight sterol/ester, 0.5% by weight radioactively marked cholesterol) via stomach probe; for Radioactivity After 6 h: blood 6 h after gelatine capsule via stomach probe; for Radioactivity After 12 h: blood 12 h after gelatine capsule via stomach probe; for Radioactivity After 24 h: blood 24 h after gelatine capsule via stomach probe; for Radioactivity After 48 h: blood 48 h after gelatine capsule via stomach probe
Description: Gelatine capsules (weight ca. 1.5 g) containing 5% by weight β-sitostanol or β-sitostanolester (nanoparticles encapsulated in a gelatine or chitosan matrix and non-nanoscale commercial products) and 0.5% by weight of radioactively marked cholesterol were prepared. To study the hypocholesterolemic effect, male rats (individual weight ca.200 g) were allowed no food overnight. The next day, a size-reduced gelatine capsule was inserted into each test animal via a stomach probe together with a little water containing sodium chloride. After 3, 6, 12, 24 and 48 h, blood was taken from the animals and the content of radioactive cholesterol was determined. The results, which represent the mean value of the measurements of 10 test animals, are set out in Table 2. The figures relating to the reduction in radioactivity are based on a blank group of test animals which were only given gelatine capsules containing 20% by weight of vitamin E and a corresponding quantity of radioactively marked cholesterol. Examples 1 and 2 correspond to the invention, Examples C1 and C2 are intended for comparison.

Structure (SMILES)	Radioactivity After 3 h [%-rel.]	Radioactivity After 6 h [%-rel.]	Radioactivity After 12 h [%-rel.]	Radioactivity After 24 h [%-rel.]	Radioactivity After 48 h [%-rel.]
CC[C@H](CC[C@@H](C)[C@H]1CC[C@H]2[C@@H]3CC[C@H]4C[C@@H](O)CC[C@]4(C)[C@H]3CC[C@]12C)C(C)C [Example C1, β-Sitostanol]	93	83	75	50	32
CCCCCCCCCCCCCCCCCC(=O)O[C@H]1CC[C@@]2(C)[C@@H](CC[C@@H]3[C@@H]2CC[C@]2(C)[C@@H]([C@H](C)CC[C@@H](CC)C(C)C)CC[C@@H]32)C1 [Example C2, β-Sitostanyl stearate]	90	80	71	44	26
